Species: Rattus norvegicus
Experiment: DrugMatrix - Regimen: Daily Repeat
Type: toxicity, organism-based, Sprague-Dawley
Design: regimen Daily Repeat, gender Male, age 6-8 weeks
Details: in vivo, po, route oral GAVAGE, vehicle 100 % WATER; for ABSOLUTE BASOPHIL / ABSOLUTE EOSINOPHIL / ABSOLUTE LYMPHOCYTE / ABSOLUTE MONOCYTE / ABSOLUTE SEGMENTED NEUTROPHIL / BASOPHIL / EOSINOPHIL / ERYTHROCYTE COUNT / HEMATOCRIT / HEMOGLOBIN / LEUKOCYTE COUNT / LYMPHOCYTE / MEAN CORPUSCULAR HEMOGLOBIN / MEAN CORPUSCULAR HEMOGLOBIN CONCENTRATION / MEAN CORPUSCULAR VOLUME / MONOCYTE / NEUTROPHIL / NUCLEATED RED BLOOD CELLS / PLATELET COUNT: tissue Blood; for ALANINE AMINOTRANSFERASE / ALBUMIN / ALKALINE PHOSPHATASE / ASPARTATE AMINOTRANSFERASE / BLOOD UREA NITROGEN / CARBON DIOXIDE / CHLORIDE / CHOLESTEROL / CREATINE PHOSPHOKINASE / CREATININE / GLUCOSE / LACTATE DEHYDROGENASE / LIPASE / PHOSPHORUS / POTASSIUM / SODIUM / TOTAL BILIRUBIN / TOTAL PROTEIN / URIC ACID: tissue Plasma
[1] = 0 mg/kg, 72 h, dose level Control, time 3 day
[2] = 0 mg/kg, 120 h, dose level Control, time 5 day
[3] = 0.3 mg/kg, 72 h, dose level Low, time 3 day

## Clc1cccc(Cl)c1N=C1NCCN1 [CLONIDINE]
[1]
  ABSOLUTE BASOPHIL: 0 CELLS/uL
  ABSOLUTE EOSINOPHIL: 24 CELLS/uL
  ABSOLUTE LYMPHOCYTE: 13105 CELLS/uL
  ABSOLUTE MONOCYTE: 76 CELLS/uL
  ABSOLUTE SEGMENTED NEUTROPHIL: 2145 CELLS/uL
  BASOPHIL: 0%
  EOSINOPHIL: 0.17%
  ERYTHROCYTE COUNT: 5.81 x10E6/uL
  HEMATOCRIT: 35.6%
  HEMOGLOBIN: 13.72 G/DL
  LEUKOCYTE COUNT: 15.35 x10E3/uL
  LYMPHOCYTE: 85.5%
  MEAN CORPUSCULAR HEMOGLOBIN: 23.62 pg
  MEAN CORPUSCULAR HEMOGLOBIN CONCENTRATION: 38.55 G/DL
  MEAN CORPUSCULAR VOLUME: 61.23 fL
  MONOCYTE: 0.5%
  NEUTROPHIL: 13.83%
  NUCLEATED RED BLOOD CELLS: 0 /100WBC
  PLATELET COUNT: 1189.83 x10E3/uL
  ALANINE AMINOTRANSFERASE: 48.67 u/L
  ALBUMIN: 4.27 G/DL
  ALKALINE PHOSPHATASE: 335 u/L
  ASPARTATE AMINOTRANSFERASE: 86.5 u/L
  BLOOD UREA NITROGEN: 14.33 mg/dL
  CARBON DIOXIDE: 29.17 mmol/L
  CHLORIDE: 99.83 MEQ/L
  CHOLESTEROL: 71.83 mg/dL
  CREATINE PHOSPHOKINASE: 506.83 u/L
  CREATININE: 0.18 mg/dL
  GLUCOSE: 162.17 mg/dL
  LACTATE DEHYDROGENASE: 264.5 u/L
  LIPASE: 9.67 u/L
  PHOSPHORUS: 11.92 mg/dL
  POTASSIUM: 6.55 MEQ/L
  SODIUM: 141.53 MEQ/L
  TOTAL BILIRUBIN: 0.18 mg/dL
  TOTAL PROTEIN: 5.87 G/DL
  URIC ACID: 1.67 mg/dL
[2]
  ABSOLUTE BASOPHIL: 0 CELLS/uL
  ABSOLUTE EOSINOPHIL: 25.33 CELLS/uL
  ABSOLUTE LYMPHOCYTE: 15680 CELLS/uL
  ABSOLUTE MONOCYTE: 92.33 CELLS/uL
  ABSOLUTE SEGMENTED NEUTROPHIL: 2102.33 CELLS/uL
  BASOPHIL: 0%
  EOSINOPHIL: 0.17%
  ERYTHROCYTE COUNT: 6 x10E6/uL
  HEMATOCRIT: 35.55%
  HEMOGLOBIN: 14.12 G/DL
  LEUKOCYTE COUNT: 17.9 x10E3/uL
  LYMPHOCYTE: 87.33%
  MEAN CORPUSCULAR HEMOGLOBIN: 23.65 pg
  MEAN CORPUSCULAR HEMOGLOBIN CONCENTRATION: 39.77 G/DL
  MEAN CORPUSCULAR VOLUME: 59.52 fL
  MONOCYTE: 0.5%
  NEUTROPHIL: 12%
  NUCLEATED RED BLOOD CELLS: 0.17 /100WBC
  PLATELET COUNT: 1325.67 x10E3/uL
  ALANINE AMINOTRANSFERASE: 56.17 u/L
  ALBUMIN: 4.23 G/DL
  ALKALINE PHOSPHATASE: 371.5 u/L
  ASPARTATE AMINOTRANSFERASE: 91 u/L
  BLOOD UREA NITROGEN: 15.33 mg/dL
  CARBON DIOXIDE: 27.67 mmol/L
  CHLORIDE: 99.5 MEQ/L
  CHOLESTEROL: 66.5 mg/dL
  CREATINE PHOSPHOKINASE: 518.5 u/L
  CREATININE: 0.18 mg/dL
  GLUCOSE: 143.33 mg/dL
  LACTATE DEHYDROGENASE: 238.83 u/L
  LIPASE: 9.33 u/L
  PHOSPHORUS: 10.68 mg/dL
  POTASSIUM: 6.5 MEQ/L
  SODIUM: 141.88 MEQ/L
  TOTAL BILIRUBIN: 0.18 mg/dL
  TOTAL PROTEIN: 6 G/DL
  URIC ACID: 1.63 mg/dL
[3]
  ABSOLUTE BASOPHIL: 0 CELLS/uL
  ABSOLUTE EOSINOPHIL: 0 CELLS/uL
  ABSOLUTE LYMPHOCYTE: 15419.33 CELLS/uL
  ABSOLUTE MONOCYTE: 122.67 CELLS/uL
  ABSOLUTE SEGMENTED NEUTROPHIL: 2191.33 CELLS/uL
  BASOPHIL: 0%
  EOSINOPHIL: 0%
  ERYTHROCYTE COUNT: 5.84 x10E6/uL
  HEMATOCRIT: 35.27%
  HEMOGLOBIN: 13.6 G/DL
  LEUKOCYTE COUNT: 17.73 x10E3/uL
  LYMPHOCYTE: 87%
  MEAN CORPUSCULAR HEMOGLOBIN: 23.23 pg
  MEAN CORPUSCULAR HEMOGLOBIN CONCENTRATION: 38.57 G/DL
  MEAN CORPUSCULAR VOLUME: 60.37 fL
  MONOCYTE: 0.67%
  NEUTROPHIL: 12.33%
  NUCLEATED RED BLOOD CELLS: 0 /100WBC
  PLATELET COUNT: 1290.67 x10E3/uL
  ALANINE AMINOTRANSFERASE: 45.33 u/L
  ALBUMIN: 3.9 G/DL
  ALKALINE PHOSPHATASE: 319 u/L
  ASPARTATE AMINOTRANSFERASE: 93.67 u/L
  BLOOD UREA NITROGEN: 18.33 mg/dL
  CARBON DIOXIDE: 27.33 mmol/L
  CHLORIDE: 101.67 MEQ/L
  CHOLESTEROL: 75 mg/dL
  CREATINE PHOSPHOKINASE: 321.67 u/L
  CREATININE: 0.19 mg/dL
  GLUCOSE: 140.33 mg/dL
  LACTATE DEHYDROGENASE: 166 u/L
  LIPASE: 9.67 u/L
  PHOSPHORUS: 10.43 mg/dL
  POTASSIUM: 6.56 MEQ/L
  SODIUM: 141.9 MEQ/L
  TOTAL BILIRUBIN: 0.17 mg/dL
  TOTAL PROTEIN: 5.63 G/DL
  URIC ACID: 1.87 mg/dL
